Data reported in ChEMBL document CHEMBL1201862, “PubChem BioAssay data set” (2004).
Activity calls are given as the source filed them.

Tests used:
[1] = NIH3T3 cell viability loss – ATP luminescence, mouse fibroblasts, counter-screen, dose response (AID 2010); type: functional, cell-based;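 also: cells exposed to compound for about 90 hours before reading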
[2] = Trypanosoma cruzi growth suppression in host cells – NIH3T3 host cells, beta-gal luminescence, confirmation (AID 2044); type: functional, cell-based;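 also: intracellular parasites grown in NIH/3T3 mouse fibroblasts as host cells; luminescent beta-galactosidase reporter signal from transgenic T. cruzi replicating inside host cells; inhibitors lower the luminescence signal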
Cytochrome P450 1A2 = molecular target: T1, Cytochrome P450 1A2 (Homo sapiens, UniProt P05177);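 also: PubChem cytochrome P450 panel assay, CYP1A2 panel member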
T1 sequence (P05177 whole entry): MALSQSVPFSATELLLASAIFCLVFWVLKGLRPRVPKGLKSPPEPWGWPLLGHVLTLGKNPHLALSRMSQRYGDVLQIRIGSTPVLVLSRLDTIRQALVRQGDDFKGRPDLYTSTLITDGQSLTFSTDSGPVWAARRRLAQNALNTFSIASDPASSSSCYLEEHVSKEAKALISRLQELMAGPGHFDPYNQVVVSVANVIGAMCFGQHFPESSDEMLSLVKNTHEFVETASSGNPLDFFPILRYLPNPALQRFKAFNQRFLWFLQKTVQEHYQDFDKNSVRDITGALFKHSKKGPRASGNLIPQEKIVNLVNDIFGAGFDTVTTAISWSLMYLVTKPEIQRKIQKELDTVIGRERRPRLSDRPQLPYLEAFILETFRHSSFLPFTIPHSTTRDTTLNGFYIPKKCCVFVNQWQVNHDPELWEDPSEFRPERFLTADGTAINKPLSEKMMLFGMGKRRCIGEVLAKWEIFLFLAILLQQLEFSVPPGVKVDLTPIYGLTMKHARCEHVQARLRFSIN

Cytochrome P450 2C19 = Cytochrome P450 2C19 (Homo sapiens, UniProt P33261); assay: Cytochrome panel assay with activity outcomes. Panel member name: p450-cyp2c19 Compounds with AC50 equal or less than 10 uM are considered active; type: functional
Streptococcus = assay: GAS UMAA2166 growth inhibition – luminescence, BacTiterGlo, counter-screen for streptokinase expression inhibitor project, dose response (AID 1915); type: functional, organism-based;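 also: potency for reduction of bacterial viability or growth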
[3] = tested on: Streptococcus sp. 'group A'; assay: Streptococcus pyogenes SK(-)GAS viability under kanamycin – luminescence, BacTiterGlo, confirmation, counter-screen for streptokinase expression inhibitor project, dose response (AID 1900); type: functional, organism-based

Sequence of Cytochrome P450 2C19 (P33261 whole entry): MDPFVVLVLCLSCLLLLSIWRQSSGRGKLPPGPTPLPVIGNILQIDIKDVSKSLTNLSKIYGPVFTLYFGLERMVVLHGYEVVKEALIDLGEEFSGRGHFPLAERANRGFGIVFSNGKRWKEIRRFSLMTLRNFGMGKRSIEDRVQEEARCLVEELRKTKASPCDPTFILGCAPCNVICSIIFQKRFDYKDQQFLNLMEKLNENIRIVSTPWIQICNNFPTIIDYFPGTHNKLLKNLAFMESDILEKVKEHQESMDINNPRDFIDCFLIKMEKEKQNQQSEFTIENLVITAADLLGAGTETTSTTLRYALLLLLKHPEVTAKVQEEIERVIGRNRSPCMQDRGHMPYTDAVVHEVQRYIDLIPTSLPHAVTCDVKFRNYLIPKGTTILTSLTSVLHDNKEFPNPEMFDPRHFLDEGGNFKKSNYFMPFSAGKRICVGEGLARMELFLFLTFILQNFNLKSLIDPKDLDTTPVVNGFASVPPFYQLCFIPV

| AC50 (Cytochrome P450 1A2) | Structure (SMILES) | EC50 [1] | EC50 [2] | also measured |
| --- | --- | --- | --- | --- |
|  | COc1ccc(C2CC(c3ccccc3)=NN2C(=O)COC(=O)c2cccc(S(=O)(=O)N3CCOCC3)c2)cc1 (stereo not drawn) | > 30 µM (not active) | 3.37 µM (active) |  |
|  | CCC(C)(C)n1nnnc1C(c1cccc(C#N)c1)N1CCN(c2cc(C)ccc2C)CC1 (stereo not drawn) | 32.6 µM (active) | 1.73 µM (active) |  |
| 20 µM (inconclusive) | CN(C)C(=O)c1ccc(-c2ccc3ncnc(NC4CCNCC4)c3c2)cc1 |  |  |  |
|  | CN1CCN(c2ncc3nc(-c4ccccc4)c(=O)n(Cc4ccc(F)cc4)c3n2)CC1 |  |  | AC50 (Cytochrome P450 2C19; read-out: AC50): 39.8 µM (inconclusive) |
|  | CN(C)CCN(C(=O)c1ccc(S(=O)(=O)N2CCCC2)cc1)c1nc2ccc(Br)cc2s1 | > 30 µM (not active) | 0.122 µM (active) |  |
| 5.01 µM (inconclusive) | CCOC(=O)CSc1nnc(CNC(=O)c2ccc(OC)cc2)n1C1CCCCC1 |  |  | AC50 (Cytochrome P450 2C19; read-out: AC50): 10 µM (inconclusive) |
|  | Cc1ccccc1N=C(S)N1CCCC(c2nc3ccccc3[nH]2)C1 (stereo not drawn) | > 60 µM (not active) | 1.28 µM (active) |  |
| 3.16 µM (inconclusive) | Cn1cc(-c2nc3cnc(Oc4ccccc4)nc3n(Cc3cccs3)c2=O)c2ccccc21 |  |  |  |
| 6.31 µM (inconclusive) | OC[C@@H](O)[C@@H](O)[C@@H](O)[C@@H](O)c1nc2cc(Cl)ccc2[nH]1 |  |  |  |
|  | O=C(COc1ncnc2cc([N+](=O)[O-])ccc12)NC(=O)NC1CCCCC1 | > 60 µM (not active) | 0.122 µM (active) |  |
|  | COc1ccc(NC(=O)c2cc(-c3cc(C)cc(C)c3O)[nH]n2)cc1Cl |  |  | EC50 (Streptococcus): 3.07 µM (active); EC50 [3]: 2.41 µM (active) |
| 15.8 µM (inconclusive) | O=C(c1cccc(F)c1)N1CCC2(CCCN(c3ccccc3)C2)CC1 |  |  |  |
|  | O=C(/C=C(\c1ccc(Cl)cc1)n1cncn1)c1ccc(Cl)cc1 | > 60 µM (not active) | 0.475 µM (active) |  |
|  | O=C(CC(C(=O)N1CCc2ccccc21)n1ccnc1)N1CCc2ccccc2C1 (stereo not drawn) | 11.5 µM (active) | 0.276 µM (active) |  |
|  | COc1ccc(C2=NCC(CSc3nnc(-c4ccc5c(c4)OCO5)o3)S2)cc1 (stereo not drawn) | > 60 µM (not active) | 0.62 µM (active) |  |
| 15.8 µM (inconclusive) | CCn1ncc(C(=O)Nc2cc(C)on2)c1C |  |  | AC50 (Cytochrome P450 2C19; read-out: AC50): 15.8 µM (inconclusive) |
| 25.1 µM (inconclusive) | COC(=O)[C@@]1(Cc2ccc(F)cc2)[C@H]2c3cc(C(=O)N4CCCC4)n(CCO)c3C[C@H]2CN1C(=O)c1ccccc1 |  |  | AC50 (Cytochrome P450 2C19; read-out: AC50): 39.8 µM (inconclusive) |
|  | CC1CC(C)(C)Nc2ccc(N=O)cc21 (stereo not drawn) | 3.13 µM (active) | 2.29 µM (active) |  |
|  | COc1ccc2[nH]c(C(=O)N3CCCN(Cc4ccc(F)cc4)CC3)cc2c1 | > 60 µM (not active) | 0.23 µM (active) |  |
|  | Cc1ccc(-c2cc3nc(-c4ccc(Br)cc4)cc(N)n3n2)cc1 |  |  | EC50 (Streptococcus): 1.06 µM (active); EC50 [3]: 1.59 µM (active) |
|  | Nc1ccccc1Nc1cc(-c2cccc(Cl)c2)nn1-c1ccccc1 | > 60 µM (inconclusive) | 4.26 µM (active) |  |
|  | CCn1c(SCc2ccc(C)cc2)nnc1-c1nn(-c2ccccc2)ccc1=O |  |  | AC50 (Cytochrome P450 2C19): inconclusive |
| 2.51 µM (inconclusive) | O=c1c(-c2cc(F)cc(F)c2)nc2cnc(N3CCOCC3)nc2n1CCc1ccccc1 |  |  |  |
|  | Cc1nc(N2CCCCC2)c2c(C)c(C(=O)Nc3cccc(C(F)(F)F)c3)sc2n1 | > 60 µM (not active) | 1.54 µM (active) |  |
|  | COc1cc(/C=C\c2ccc(OC)cc2OC)cc(OC)c1 |  |  | AC50 (Cytochrome P450 2C19): inconclusive |
| 28.2 µM (inconclusive) | Cc1ccc(CONC(=O)/N=C/N(C)C)cc1 |  |  |  |
